Measured values published in patent publication US20150011393A1, “METHOD FOR INTRODUCING FLORIGEN” (priority 2012, published 2015).

Columns and labels:
Arabidopsis = assay: Flowering-promoting effect in Arabidopsis plant body after direct introduction of florigen; type: in vivo
Experimental: A mixed solution prepared by mixing the florigen mHd3a-1 and the cell-penetrating peptide R9 in ten-times diluted PBS in the same manner as in Example 3 was used for treatment of seedling of Arabidopsis at the time of cotyledon expansion about three days after seeding. It should be noted that the shoot apices in seedling of Arabidopsis was exposed at the time of cotyledon expansion. The treatment was carried out at room temperature for 2 days. After that, the mixed solution was washed, and the plants were cultivated on the MS medium under a short-day condition (day length: 10 hours) for from 30 to 40 days to examine the timing of the flowering. The examination condition of the start of the flowering was defined as the start of bolting or a state where differentiation of flower buds was visually observed, and whether the flowering was early or late was evaluated based on the number of rosette leaves at the time when the state described above was achieved. In the case of Arabidopsis, rosette leaves are usually extracted, and the extraction of the rosette leaves is stopped when the flowering is started. When the flowering is started in the early stage, the number of the leaves is small because only a small number of the rosette leaves can be extracted, while when it takes a long time before the flowering is started, the number of the leaves is large because many rosette leaves can be extracted.
FIG. 12 and FIG. 13 show the results. FIG. 12 are photographs taken on day 14 and day 21, when the cultivation start date under the short-day condition is defined as day 0. The enlarged view is one obtained by enlarging the area enclosed by a dashed line in the photograph of a flower bud of an individual treated with the mixed solution of mHd3a-1 and R9, which was taken on day 21. In addition, the numbers in the graph of FIG. 13 represent numbers of individuals that achieved the flowering at each number of leaves. […]

[1] = system: Rice radicles, cultured rice cells (rice protoplasts), tobacco leaves, and Arabidopsis leaves; assay: Quantitative efficiency of introduction of GFP by eight cell-penetrating peptides in four tissues; type: cell-based; conditions: rank among eight cell-penetrating peptides over four tissues (32 treatment groups)
Experimental: Eight kinds of cell-penetrating peptides shown in Table 1 above and GFP were separately mixed in PBS (137 mM NaCl, 2.7 mM KCl, 10 mM Na2HPO4, 1.76 mM KH2PO4) (pH 7.4) so as to achieve a final concentration of 50 μM, and rice radicles were immersed in the mixtures. The eight kinds of cell-penetrating peptides are typical peptides selected from arginine-rich peptides, amphiphilic peptides, and peptides each having an RXLR sequence, and were prepared by chemical synthesis.
The immersion treatment was carried out for 16 hours at room temperature, followed by low-temperature treatment at 4° C. for 4 hours. The samples were washed until fluorescence was not observed in a negative control group treated with GFP alone, and cells were counted under a fluorescence stereomicroscope to calculate ratios of fluorescent cells.
(2) The efficiency of introduction of GFP by the eight kinds of cell-penetrating peptides was examined quantitatively in the same manner as in (1) above. Rice radicles (FIG. 2a), cultured rice cells (rice protoplasts) (FIG. 2b), tobacco leaves (FIG. 2c), and Arabidopsis leaves (FIG. 2d) were used as tissues to be examined. A total of 32 treatment groups were evaluated.

[2] = Search for florigen capable of high level expression (soluble fractions); conditions: recombinant expression of mutated Hd3a
Source text: FIG. 5 is a photograph showing mHd3a-1 separated and detected by SDS-PAGE through a conventional method.

rice shoot apical tissue = assay: Introduction of FITC-labeled florigen into cell of rice shoot apical tissue; type: cell-based; conditions: florigen 50 μM, R9 500 μM in PBS (pH 7.4)
Experimental: (§1) The mHd3a-1 prepared by high level expression in Example 2 was labeled with a fluorochrome FITC. Subsequently, a rice shoot apical tissue was exposed under a stereomicroscope, and the cell-penetrating peptide and the florigen were mixed and used for treatment of the plant tissue in the same manner as in Example 1. A mixed solution was prepared by adding the florigen at a final concentration of 50 μM and the cell-penetrating peptide R9 at a final concentration of 500 μM in PBS (pH 7.4). The mixed solution was added dropwise to the exposed shoot apical tissue to bring the mixed solution into contact with the tissue. The tissue was treated for 16 hours at room temperature.

[3] = system: flower-bud formation marker gene; assay: Expression of flower-bud formation marker gene after direct introduction of florigen, rice with all florigens inactivated (Hd3a-RFT1 double RNAi); type: in vivo; conditions: introduced with R9 as in Example 3
Source text: (§2) (1) A rice shoot apical tissue into which the florigen was introduced was isolated in the same manner as in Example 3. RNA was extracted from the rice shoot apical tissue by a conventional method, and expression of a flower-bud formation marker gene (OsMADS15 gene) was examined by real-time quantitative RT-PCR (see Non Patent Literature 2 for the method).
(2) Further, rice in which all florigens were inactivated (Hd3a-RFT1 double RNAi) (Komiya et al. (2008) Development 135:767-774) was subjected to the same experiment as in (1).

[4] = system: shoot apical tissues of Arabidopsis; assay: Introduction of florigen into cells of shoot apical tissue of Arabidopsis; type: cell-based; conditions: mixed solution with R9 as in Example 3
Experimental: as §1
(§3) In the same manner as in Example 3, the mixed solution of the cell-penetrating peptide and the florigen was added dropwise to shoot apical tissues of corn and Arabidopsis to treat the tissues.

[5] = system: flower-bud formation marker gene OsMADS15; assay: Florigen function in transient expression system for protoplasts (with OsFD1), RT-PCR; type: cell-based; conditions: transiently expressed with OsFD1 in protoplasts; compared among five mutated Hd3a's
Source text: (2) The florigen functions were examined for mutated Hd3a partial peptides of mHd3a-2F (full-length, having C43L, C109S, and C166S amino acid substitutions) and m-Hd3a-3F (full-length, having K31A, Y136A, and W140A amino acid substitutions) in addition to the mutated Hd3a's examined in (1) above, i.e., mHd3a-1, mHd3a-2T, and mHd3a-3T. The as say system used is a transient expression system for protoplasts. When the mutated Hd3a and a transcription factor OsFD1 are transiently expressed in protoplasts in this system, a flower-bud formation marker gene OsMADS15 is transcriptionally activated if the Hd3a is functional. The transient expression system for protoplasts was constructed according to the method described in Non Patent Literature 2. In addition, the expression of the OsMADS15 gene was examined by RT-PCR method according to the method described in Non Patent Literature 2.

[6] = system: shoot apical tissues of corn; assay: Introduction of florigen into cells of shoot apical tissue of corn; type: cell-based; conditions: mixed solution with R9 as in Example 3
Experimental: as §1, §3

[7] = system: flower-bud formation marker gene (OsMADS15 gene); assay: Expression of flower-bud formation marker gene after direct introduction of florigen, wild-type rice, real-time quantitative RT-PCR; type: in vivo; conditions: wild-type rice shoot apical tissue; introduced with R9 as in Example 3
Source text: as §2

[8] = system: APETALA1 (AP1) gene, FRUITFULL (FUL) gene, and SQUAMOSA PROMOTER BINDING-LIKES (SPL3) gene; assay: Induction of expression of flowering-responsive genes in Arabidopsis after direct introduction of florigen, real-time quantitative RT-PCR; type: in vivo; conditions: shoot apical tissue after 2 weeks cultivation
Source text: The florigen was introduced directly into Arabidopsis in the same manner as in Example 6, and then the plants were cultivated for 2 weeks, followed by collection of a shoot apical tissue from each individual. RNA was extracted from the shoot apical tissue collected from each individual, and cDNA was synthesized based on a reverse transcription reaction. After that, the expression levels of APETALA1 (AP1) gene, FRUITFULL (FUL) gene, and SQUAMOSA PROMOTER BINDING-LIKES (SPL3) gene were examined by real-time quantitative RT-PCR (see Yamaguchi et al. Dev. Cell 17:268-278 (2009)).

[9] = system: rice root epidermal cells; assay: Effect of molar ratio of cell-penetrating peptide to protein on efficiency of introduction of GFP; type: cell-based
Experimental: (3) The effect of the molar ratios of the cell-penetrating peptides to the protein on the efficiency of introduction of the protein was examined. The molar ratios of the cell-penetrating peptides (Avr1b and R9) to the protein were changed to 0.01, 0.1, 1, and 10, and the efficiency of introduction of GFP into rice root epidermal cells was evaluated.

Substance: mHR: mutated Hd3a incapable of being bound to a receptor (Hd3a R64D F103A R132D), used mixed with R9
- effect of promoting the start of the flowering (Arabidopsis; used instead of mHd3a-1 in mixed solution with R9, short-day condition): not observed

Substance: Tat: cell-penetrating peptide YGRKKRRQRRR (SEQ ID NO: 2), arginine-rich, derived from Tat protein of HIV virus (Membrane-permeable peptide Tat)
- comprehensive efficiency of introduction of GFP [1]: second highest

Substance: mHd3a-2T: partial peptide of Hd3a, amino acids at positions from 6 to 170, having C43L, C109S, and C166S substitutions
- high level expression and soluble fractions [2]: capable of high level expression and providing soluble fractions

Substance: mHd3a-1: mutated rice Hd3a, full-length, having K31A and E57A amino acid substitutions
- localization in the cell of the rice shoot apical tissue (rice shoot apical tissue; 16 hours): localized accurately in the nucleus
- introduction into the rice shoot apical tissue (rice shoot apical tissue; 16 hours at room temperature): introduced efficiently
- expression of the flower-bud formation marker gene [3]: could activate the expression
- introduction into the shoot apical tissue of Arabidopsis [4]: introduced efficiently
- localization in the cell of the shoot apical tissue of Arabidopsis [4]: localized accurately in the nucleus
- high level expression and soluble fractions [2]: capable of high level expression and providing soluble fractions
- plants able to start the flowering when the number of the leaves was 14 or less (Arabidopsis; Arabidopsis seedlings treated 2 days with mixed solution with R9 in ten-times diluted PBS, short-day condition 30 to 40 days): about 30%
- activation of transcription of the OsMADS15 gene [5]: most desirably activated
- introduction into the shoot apical tissue of corn [6]: introduced efficiently
- localization in the cell of the shoot apical tissue of corn [6]: localized accurately in the nucleus
- expression of the flower-bud formation marker gene (OsMADS15 gene) [7]: can activate expression
- individuals treated in which induction of the expression was observed [8]: about 30%
- expression of AP1, FUL and SPL3 genes ([8]; eIF4a internal standard): activated the expression of the three genes

Substance: R9: cell-penetrating peptide RRRRRRRRR (SEQ ID NO: 7), arginine-rich, artificially designed sequence (Membrane-permeable peptide R9)
- comprehensive efficiency of introduction of GFP [1]: second highest
- start of the flowering when the number of the leaves was 14 or less (almost all the plants) (Arabidopsis; R9 alone, short-day condition): did not start the flowering
- change of introduction efficiency as molar ratio increased in the order of 0.01, 0.1, 1, and 10 ([9]; mixed solution of cell-penetrating peptide and GFP): the introduction efficiency increased
- increase of efficiency of introduction of GFP, molar ratio 10 versus molar ratio 1 ([9]; molar ratio of cell-penetrating peptide to protein 10 compared to 1): 2.5 times

Substance: mHd3a-3T: partial peptide of Hd3a, amino acids at positions from 8 to 170, having K31A, Y136A, and W140A substitutions
- high level expression and soluble fractions [2]: capable of high level expression and providing soluble fractions
